ChEMBL document CHEMBL1157901, “Discovery of a tetrahydropyrimidin-2(1H)-one derivative (TAK-442) as a potent, selective, and orally active factor Xa inhibitor” (J Med Chem, 2010)

Tests used:
[1] = Octanol-water partition coefficient, log D at pH 7.4; assay type: physicochemical
[2] = Metabolic stability in human liver microsomes assessed as compound remaining after 120 mins by HPLC; assay type: ADME, Microsome; conditions: read-out: Activity
[3] = Metabolic stability in monkey liver microsomes assessed as compound remaining after 120 mins by HPLC; assay type: ADME, Macaca mulatta, Microsome; conditions: rhesus monkey, read-out: Activity

Compound | logD [1] | remaining at 2 h [2] | remaining at 2 h [3]
O=C([C@H](O)CS(=O)(=O)c1ccc2cc(Cl)ccc2c1)N1CCC(N2CCCCCC2=O)CC1 | 2.52 |  | 
Cc1ncc2n1C(=O)N(C1CCN(C(=O)[C@H](O)CS(=O)(=O)c3ccc4cc(Cl)ccc4c3)CC1)C2 | 2.13 |  | 
O=C([C@H](O)CS(=O)(=O)c1ccc2cc(Cl)ccc2c1)N1CCC(n2cc[nH]c2=O)CC1 | 1.79 |  | 
O=C([C@H](O)CS(=O)(=O)c1ccc2cc(Cl)ccc2c1)N1CCC(N2C[C@H]3CCCN3C2=O)CC1 | 2.16 |  | 
O=C([C@H](O)CS(=O)(=O)c1ccc2cc(Cl)ccc2c1)N1CCC(N2NCCCC2=O)CC1 | 1.85 |  | 
O=C([C@H](O)CS(=O)(=O)c1ccc2cc(Cl)ccc2c1)N1CCC(N2CCCS2(=O)=O)CC1 | 1.69 |  | 
O=C([C@H](O)CS(=O)(=O)c1ccc2cc(Cl)ccc2c1)N1CCC(N2Cc3cccn3C2=O)CC1 | 2.6 |  | 
Cc1ncc2n1C(=O)N(C1CCN(C(=O)CCS(=O)(=O)c3ccc4cc(Cl)ccc4c3)CC1)C2 |  | 70.5% | 99.9%
O=C([C@H](O)CS(=O)(=O)c1ccc2cc(Cl)ccc2c1)N1CCC(N2C[C@@H]3CCCN3C2=O)CC1 | 2.16 |  | 
O=C([C@H](O)CS(=O)(=O)c1ccc2cc(Cl)ccc2c1)N1CCC(N2CCCC2)CC1 | 1.56 |  | 
O=C([C@H](O)CS(=O)(=O)c1ccc2cc(Cl)ccc2c1)N1CCC(N2Cc3ccccc3C2=O)CC1 | 2.58 |  | 

Next, values leading:

logD [1] | remaining at 2 h [2] | remaining at 2 h [3] | Compound
1.96 |  |  | O=C([C@H](O)CS(=O)(=O)c1ccc2cc(Cl)ccc2c1)N1CCC(N2CCCC2=O)CC1
1.73 |  |  | O=C([C@H](O)CS(=O)(=O)c1ccc2cc(Cl)ccc2c1)N1CCC(N2CCNC2=O)CC1
1.85 |  |  | O=C([C@H](O)CS(=O)(=O)c1ccc2cc(Cl)ccc2c1)N1CCC(N2CCOCC2=O)CC1
1.81 |  |  | O=C([C@H](O)CS(=O)(=O)c1ccc2cc(Cl)ccc2c1)N1CCC(N2CCCNC2=O)CC1 [LETAXABAN]
1.75 |  |  | O=C([C@H](O)CS(=O)(=O)c1ccc2cc(Cl)ccc2c1)N1CCC(N2CCOC2=O)CC1
1.67 |  |  | O=C([C@H](O)CS(=O)(=O)c1ccc2cc(Cl)ccc2c1)N1CCC(N2CCCOC2=O)CC1
2.19 |  |  | O=C([C@H](O)CS(=O)(=O)c1ccc2cc(Cl)ccc2c1)N1CCC(N2CCCCC2=O)CC1
